Where two headings read alike, the source gives them in different places.
Test system: adhesion of U937 cells to human umbilical venous endothelial cells (HUVEC)
Test: Inhibitory effect on cell adhesion (fluorescence-labeled U937 adhered to IL-1β- or TNFα-stimulated HUVEC)
Assay type: cell-based
Conditions: compound at 1 μM
Protocol: (Inhibitory Effect on Cell Adhesion)
This test was conducted by reference to the method of Ross et al. (J. Biol. Chem., 267, 8537-8543 (1992)). More specifically, after human umbilical venous endothelial cells (HUVEC) were cultured on a 48-well plate to confluent growth, IL-1β or TNFα was added thereto. Upon elapsed time of 5 hours after the addition, U937, which is a human monocytic/histocytic cell fluorescence-labeled with PKH2 (product of Dainippon Pharmaceutical Co., Ltd.), was added in a proportion of 1×10^6 cells per well. After the plate was left at rest at room temperature for 1 hour, unadhered U937 was washed out and lysed in 1% Triton X-100 to measure a remaining fluorescence intensity (excitation wavelength: 480 nm; measuring wavelength: 530 nm). HUVEC and U937 were cultured in EGM-2 (product of Sanko Junyaku K.K.) and 10% FCS-containing RPMI1640, respectively. Each test agent was added to HUVEC upon the addition of IL-1β or TNFα and to U937 24 hours prior to the cell adhesion test. The inhibitory activity was calculated out according to the equation [100−(C−B)/(A−B)×100(%)], wherein A is the number of U937 cells adhered to HUVEC stimulated by IL-1β or TNFα when no test agent was added, B is the number of U937 cells adhered to HUVEC not stimulated by IL-1β or TNFα when no test agent was added, and C is the number of U937 cells adhered to HUVEC stimulated by IL-1β or TNFα when the test agent was added. As control compounds, Test Compound 1 described in Japanese Patent Application Laid-Open No. 9-143075 and dilazep described in Japanese Patent Application Laid-Open No. 11-92382 were simultaneously evaluated.

[1] = U937 adhesion to HUVEC stimulated by IL-1β, read-out: Percent inhibition (%) Stimulation by IL-1β
[2] = U937 adhesion to HUVEC stimulated by TNFα, read-out: Percent inhibition (%) Stimulation by TNFα

SMILES	inhibition at 1 µM [1] [%]	inhibition at 1 µM [2] [%]
COc1cc(C(=O)OCCCN2CCCN(CCCOC(=O)c3cc(OC)c(OC)c(OC)c3)CC2)cc(OC)c1OC [Dilazep, dilazep, reference compound]	0	12
COc1cc(-c2cc(CN3CCN(CCc4ccc5c(OC)c(OC)c(OC)cc5c4)CC3)ccn2)cc(OC)c1OC [Example 37, N-[2-(5,6,7-trimethoxynaphthalen-2-yl)ethyl]-N′-[[2-(3,4,5-trimethoxyphenyl)pyridin-4-yl]methyl]-piperazine dimaleate]	68	56
COc1ccc(-c2cc(CN3CCN(Cc4ccnc(-c5cc(OC)c(OC)c(OC)c5)c4)CC3)ccn2)cc1OC [Example 26, N-[[2-(3,4-dimethoxyphenyl)pyridin-4-yl]methyl]-N′-[[2-(3,4,5-trimethoxyphenyl)pyridin-4-yl]methyl]piperazine difumarate]	75	69
COc1cc(-c2cccc(CN3CCCN(Cc4ccnc(-c5cc(OC)c(OC)c(OC)c5)c4)CC3)c2)cc(OC)c1OC [Example 19, N-[3-(3,4,5-trimethoxyphenyl)benzyl]-N′-[[2-(3,4,5-trimethoxyphenyl)pyridin-4-yl]methyl]homopiperazine difumarate]	33	58
COc1cc(-c2cccc(CN3CCN(Cc4ccnc(-c5cc(OC)c(OC)c(OC)c5)c4)CC3)c2)cc(OC)c1OC [Example 18, N-[3-(3,4,5-trimethoxyphenyl)benzyl]-N′-[[2-(3,4,5-trimethoxyphenyl)pyridin-4-yl]methyl]piperazine difumarate]	37	54
COc1cc(-c2cc(CN3CCN(Cc4ccnc(-c5ccccc5)c4)CC3)ccn2)cc(OC)c1OC [Example 21, N-[(2-phenylpyridin-4-yl)methyl]-N′-[[2-(3,4,5-trimethoxyphenyl)pyridin-4-yl]methyl]piperazine difumarate]	44	60
COc1cc(/C=C/CCCN2CCN(Cc3ccnc(-c4cc(OC)c(OC)c(OC)c4)c3)CC2)cc(OC)c1OC [Example 40, N-[(E)-5-(3,4,5-trimethoxyphenyl)-4-pentenyl-]-N′-[[2-(3,4,5-trimethoxyphenyl)pyridin-4-yl]methyl]piperazine difumarate]	44	55
COc1cc(-c2cc(CN3CCN(Cc4ccc5c(OC)c(OC)c(OC)cc5c4)CC3)ccn2)cc(OC)c1OC [Example 38, N-[(5,6,7-trimethoxynaphthalen-2-yl)methyl]-N′-[[2-(3,4,5-trimethoxyphenyl)pyridin-4-yl]methyl]-piperazine dimaleate]	59	76
COc1cc(/C=C/CCCN2CCCN(Cc3ccnc(-c4cc(OC)c(OC)c(OC)c4)c3)CC2)cc(OC)c1OC [Example 41, N-[(E)-5-(3,4,5-trimethoxyphenyl)-4-pentenyl]-N′-[[2-(3,4,5-trimethoxyphenyl)pyridin-4-yl]methyl]homopiperazine difumarate]	56	67
COc1ccc(-c2cc(CN3CCN(Cc4ccnc(-c5cc(OC)c(OC)c(OC)c5)c4)CC3)ccn2)cc1 [Example 25, N-[[2-(4-methoxyphenyl)pyridin-4-yl]methyl]-N′-[[2-(3,4,5-trimethoxyphenyl)pyridin-4-yl]methyl]-piperazine difumarate]	78	70
COc1cc(-c2cc(CN3CCN(CCC/C=C/c4ccc(F)cc4)CC3)ccn2)cc(OC)c1OC [Example 42, N-[(E)-5-(4-fluorophenyl)-4-pentenyl]-N′-[[2-(3,4,5-trimethoxyphenyl)pyridin-4-yl]methyl]piperazine difumarate]	54	56
COc1cc(-c2cccc(C(=O)N3CCN(Cc4ccnc(-c5cc(OC)c(OC)c(OC)c5)c4)CC3)c2)cc(OC)c1OC [Example 56, N-[3-(3,4,5-trimethoxyphenyl)benzoyl]-N′-[[2-(3,4,5-trimethoxyphenyl)pyridin-4-yl]methyl]piperazine]	76	52

Reference: US6552188B2, “Unsymmetrical cyclic diamine compound” (Kowa Co., Ltd., priority 2001, dated 2003)
